Assay results: ChEMBL document CHEMBL1148998, “Limonoids from the seeds of Melia azedarach” (1986)

Key:
Vibrio cholerae [1] = assay: Antibacterial activity against Vibrio cholerae at 10 mg/10 ml dimethylformamide; assay type: functional
Klebsiella pneumoniae [2] = assay: Antibacterial activity against Klebsiella pneumoniae at 10 mg/10 ml dimethylformamide; assay type: functional
Salmonella typhimurium [3] = assay: Antibacterial activity against Salmonella Typhimurium at 10 mg/10 ml dimethylformamide; assay type: functional, Salmonella enterica subsp. enterica serovar Typhimurium
Escherichia coli [4] = assay: Antibacterial activity against Escherichia coli at 10 mg/10 ml dimethylformamide; assay type: functional
Klebsiella pneumoniae [5] = assay: Antibacterial activity against Klebsiella pneumoniae at 2 mg/10 ml dimethylformamide; assay type: functional
Klebsiella pneumoniae [6] = assay: Antibacterial activity against Klebsiella pneumoniae at 4 mg/10 ml dimethylformamide; assay type: functional
Vibrio cholerae [7] = assay: Antibacterial activity against Vibrio cholerae at 6 mg/10 ml dimethylformamide; assay type: functional
Vibrio cholerae [8] = assay: Antibacterial activity against Vibrio cholerae at 4 mg/10 ml dimethylformamide; assay type: functional
Escherichia coli [9] = assay: Antibacterial activity against Escherichia coli at 6 mg/10 ml dimethylformamide; assay type: functional
Salmonella typhimurium [10] = assay: Antibacterial activity against Salmonella Typhimurium at 8 mg/10 ml dimethylformamide; assay type: functional, Salmonella enterica subsp. enterica serovar Typhimurium
Escherichia coli [11] = assay: Antibacterial activity against Escherichia coli at 4 mg/10 ml dimethylformamide; assay type: functional
Klebsiella pneumoniae [12] = assay: Antibacterial activity against Klebsiella pneumoniae at 8 mg/10 ml dimethylformamide; assay type: functional
Vibrio cholerae [13] = assay: Antibacterial activity against Vibrio cholerae at 8 mg/10 ml dimethylformamide; assay type: functional
Klebsiella pneumoniae [14] = assay: Antibacterial activity against Klebsiella pneumoniae at 6 mg/10 ml dimethylformamide; assay type: functional
Vibrio cholerae [15] = assay: Antibacterial activity against Vibrio cholerae at 2 mg/10 ml dimethylformamide; assay type: functional
Salmonella typhimurium [16] = assay: Antibacterial activity against Salmonella Typhimurium at 2 mg/10 ml dimethylformamide; assay type: functional, Salmonella enterica subsp. enterica serovar Typhimurium
Salmonella typhimurium [17] = assay: Antibacterial activity against Salmonella Typhimurium at 6 mg/10 ml dimethylformamide; assay type: functional, Salmonella enterica subsp. enterica serovar Typhimurium
Salmonella typhimurium [18] = assay: Antibacterial activity against Salmonella Typhimurium at 4 mg/10 ml dimethylformamide; assay type: functional, Salmonella enterica subsp. enterica serovar Typhimurium
Escherichia coli [19] = assay: Antibacterial activity against Escherichia coli at 8 mg/10 ml dimethylformamide; assay type: functional
Escherichia coli [20] = assay: Antibacterial activity against Escherichia coli at 2 mg/10 ml dimethylformamide; assay type: functional

Q: `CN[C@@H]1[C@H](O[C@H]2[C@H](O[C@H]3[C@H](O)[C@@H](O)[C@H](N=C(N)N)[C@@H](O)[C@@H]3N=C(N)N)O[C@@H](C)[C@]2(O)C=O)O[C@@H](CO)[C@H](O)[C@H]1O` [STREPTOMYCIN] was tested. Which “inhibition zone (IZ)” value (Vibrio cholerae [1]) did it give?
A: Its value is 12 mm.

Q: What about the “inhibition zone (IZ)” value (Klebsiella pneumoniae [2]) of the same molecule?
A: Its value is 10 mm.

Q: What about the “inhibition zone (IZ)” value (Salmonella typhimurium [3]) of the same molecule?
A: The value was 9 mm.

Q: And the “inhibition zone (IZ)” value (Escherichia coli [4])?
A: The value was 8 mm.

Q: How did the “inhibition zone (IZ)” value (Klebsiella pneumoniae [5]) turn out when `CC(=O)OC1=C2C(C)(C)[C@@H](O[C@@H]3O[C@@H](C)[C@H](O)[C@@H](O)[C@H]3O)C=C[C@]2(C)[C@H]2[C@H](O)C[C@@]3(C)[C@H](c4ccoc4)C[C@H]4O[C@]43[C@]2(C)C1=O` was run?
A: Its value is 10 mm.

Q: What about the “inhibition zone (IZ)” value (Klebsiella pneumoniae [6]) of the same molecule?
A: The value was 12 mm.

Q: What about the “inhibition zone (IZ)” value (Vibrio cholerae [7]) of the same molecule?
A: Its value is 17 mm.

Q: And the “inhibition zone (IZ)” value (Vibrio cholerae [8])?
A: Its value is 15 mm.

Q: And the “inhibition zone (IZ)” value (Escherichia coli [9])?
A: Its value is 12 mm.

Q: And the “inhibition zone (IZ)” value (Salmonella typhimurium [10])?
A: Its value is 15 mm.

Q: What about the “inhibition zone (IZ)” value (Escherichia coli [11]) of the same molecule?
A: The value was 11 mm.

Q: What about the “inhibition zone (IZ)” value (Vibrio cholerae [1]) of the same molecule?
A: Its value is 20 mm.

Q: What about the “inhibition zone (IZ)” value (Klebsiella pneumoniae [2]) of the same molecule?
A: Its value is 18 mm.

Q: What about the “inhibition zone (IZ)” value (Klebsiella pneumoniae [12]) of the same molecule?
A: Its value is 16 mm.

Q: What about the “inhibition zone (IZ)” value (Salmonella typhimurium [3]) of the same molecule?
A: Its value is 16 mm.

Q: What about the “inhibition zone (IZ)” value (Vibrio cholerae [13]) of the same molecule?
A: Its value is 18 mm.

Q: What about the “inhibition zone (IZ)” value (Klebsiella pneumoniae [14]) of the same molecule?
A: Its value is 14 mm.

Q: And the “inhibition zone (IZ)” value (Vibrio cholerae [15])?
A: Its value is 13 mm.

Q: What about the “inhibition zone (IZ)” value (Salmonella typhimurium [16]) of the same molecule?
A: Its value is 11 mm.

Q: And the “inhibition zone (IZ)” value (Escherichia coli [4])?
A: Its value is 15 mm.

Q: What about the “inhibition zone (IZ)” value (Salmonella typhimurium [17]) of the same molecule?
A: The value was 13 mm.

Q: And the “inhibition zone (IZ)” value (Salmonella typhimurium [18])?
A: Its value is 12 mm.

Q: What about the “inhibition zone (IZ)” value (Escherichia coli [19]) of the same molecule?
A: Its value is 14 mm.

Q: What about the “inhibition zone (IZ)” value (Escherichia coli [20]) of the same molecule?
A: The value was 10 mm.
